17 compounds from US20260092074A1, “Annelated Pyridines as Steroidogenesis Inhibitors, Preparation Method and Use Thereof” (Guangzhou Vinnocent Pharmaceutical Limited, priority 2022, published 2026) can be followed below.

One experiment has as its target T1, human CYP11B2 (Homo sapiens, UniProt P19099).
T1 construct: expressed in transfected cells
T1 sequence (P19099 25-503): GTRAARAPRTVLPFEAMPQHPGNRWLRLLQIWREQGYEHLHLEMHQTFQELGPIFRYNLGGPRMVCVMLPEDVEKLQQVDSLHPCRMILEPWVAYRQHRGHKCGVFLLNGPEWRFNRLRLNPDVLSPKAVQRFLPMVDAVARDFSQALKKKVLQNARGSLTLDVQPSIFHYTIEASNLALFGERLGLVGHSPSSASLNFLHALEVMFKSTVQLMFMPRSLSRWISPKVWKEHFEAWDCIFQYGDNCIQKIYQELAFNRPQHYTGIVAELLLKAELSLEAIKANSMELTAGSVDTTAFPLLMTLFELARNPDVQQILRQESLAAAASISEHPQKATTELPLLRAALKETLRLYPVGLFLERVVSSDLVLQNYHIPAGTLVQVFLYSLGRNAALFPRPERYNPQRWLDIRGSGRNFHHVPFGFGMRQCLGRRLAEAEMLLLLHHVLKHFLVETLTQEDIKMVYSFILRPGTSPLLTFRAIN
The experiment can be described thus: Inhibition of hCYP11B2 in transfected V79 cells. The class given is cell-based. To be noted: hamster V79 cells expressing human CYP11B2; substrate 11-deoxycorticosterone 200 nM. The essentials:
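The substrate (200 nM, 30 min) was added after a 2 hour compound pre-incubation in lentivirus-transduced V79 cells stably expressing human CYP11B2 plus rat NADPH-P450 reductase.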

For the next experiment, the target named is T2, human CYP11B1 (Homo sapiens, UniProt P15538).
T2 construct: expressed in transfected cells
T2 sequence (P15538 25-503): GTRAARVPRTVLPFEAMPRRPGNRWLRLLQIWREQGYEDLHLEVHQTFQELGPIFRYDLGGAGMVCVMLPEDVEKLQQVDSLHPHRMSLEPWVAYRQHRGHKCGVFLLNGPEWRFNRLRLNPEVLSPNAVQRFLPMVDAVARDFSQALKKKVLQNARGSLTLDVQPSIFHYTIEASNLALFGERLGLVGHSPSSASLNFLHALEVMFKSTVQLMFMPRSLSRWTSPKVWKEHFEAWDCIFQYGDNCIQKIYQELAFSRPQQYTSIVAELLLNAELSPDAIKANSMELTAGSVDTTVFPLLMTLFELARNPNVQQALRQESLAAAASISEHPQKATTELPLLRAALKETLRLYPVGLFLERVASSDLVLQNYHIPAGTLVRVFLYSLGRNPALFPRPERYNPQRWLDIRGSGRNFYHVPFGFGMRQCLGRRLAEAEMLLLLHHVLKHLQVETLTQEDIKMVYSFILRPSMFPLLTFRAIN
Put plainly: Inhibition of hCYP11B1 in transfected V79 cells. The class given is cell-based. The following applies: hamster V79 cells expressing human CYP11B1; substrate 11-deoxycortisol 200 nM. The method, boiled down:
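Reactions started with 200 nM 11-deoxycortisol, ran for 30 min and were stopped with ethyl acetate, after a 2 h compound preincubation. The host was stably transfected V79 hamster cells carrying human CYP11B1 plus rat P450 reductase. Percent inhibition, from LC-MS/MS or HPLC (260 nm) quantitation of substrate and product, gave the IC50.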

pIC50: −log10 of the molar value.

In the case of `N#Cc1ccc(-c2cncc3c2SCCN3C(=O)c2cccc(C(F)(F)F)c2)cc1` [S87, 4-(4-(3-(Trifluoromethyl)benzoyl)-3,4-dihydro-2H-pyrido[4,3-b][1,4]thiazin-8-yl)benzonitrile], the figures for the pIC50 on human CYP11B2 and against human CYP11B1 were 7.92 and 6.28, respectively.
The matching figures for `N#Cc1ccc(-c2cncc3c2SCCN3C(=O)c2ccc(C(F)(F)F)cc2)cc1` [S88, 4-(4-(4-(Trifluoromethyl)benzoyl)-3,4-dihydro-2H-pyrido[4,3-b][1,4]thiazin-8-yl)benzonitrile]: 8.17 and 6.60.
The matching figures for `Cc1ccc(C(=O)N2CCSc3c(-c4ccc(C#N)cc4)cncc32)cc1` [S89, 4-(4-(4-Methylbenzoyl)-3,4-dihydro-2H-pyrido[4,3-b][1,4]thiazin-8-yl)benzonitrile]: 7.37 and 5.55.
For `Cc1ccccc1C(=O)N1CCSc2c(-c3ccc(C#N)cc3)cncc21` [S90, 4-(4-(2-Methylbenzoyl)-3,4-dihydro-2H-pyrido[4,3-b][1,4]thiazin-8-yl)benzonitrile] the same measures were 7.19 and 5.35.
As for `Cc1cccc(C(=O)N2CCSc3c(-c4ccc(C#N)cc4)cncc32)c1` [S91, 4-(4-(3-Methylbenzoyl)-3,4-dihydro-2H-pyrido[4,3-b][1,4]thiazin-8-yl)benzonitrile], the pIC50 against human CYP11B2 was 7.36; against human CYP11B1, 5.44.
The matching figures for `N#Cc1ccc(-c2cncc3c2SCCN3C(=O)c2ccc(Cl)cc2)cc1` [S92, 4-(4-(4-Chlorobenzoyl)-3,4-dihydro-2H-pyrido[4,3-b][1,4]thiazin-8-yl)benzonitrile]: 7.89 and 6.07.
The matching figures for `N#Cc1ccc(-c2cncc3c2SCCN3C(=O)c2cccc(Cl)c2)cc1` [S93, 4-(4-(3-Chlorobenzoyl)-3,4-dihydro-2H-pyrido[4,3-b][1,4]thiazin-8-yl)benzonitrile]: 7.62 and 5.88.
Take `N#Cc1ccc(C(=O)N2CCSc3c(-c4ccc(C#N)cc4)cncc32)cc1` [S94, 4-(4-(4-Cyanobenzoyl)-3,4-dihydro-2H-pyrido[4,3-b][1,4]thiazin-8-yl)benzonitrile]: the pIC50 is 7.42 on human CYP11B2 and 5.58 at human CYP11B1.
The matching figures for `N#Cc1ccc(-c2cncc3c2SCCN3C(=O)c2cccc(C#N)c2)cc1` [S95, 3-(8-(4-Cyanophenyl)-3,4-dihydro-2H-pyrido[4,3-b][1,4]thiazine-4-carbonyl)benzonitrile]: 7.10 and 5.69.
The matching figures for `COc1cccc(C(=O)N2CCSc3c(-c4ccc(C#N)cc4)cncc32)c1` [S96, 4-(4-(3-Methoxybenzoyl)-3,4-dihydro-2H-pyrido[4,3-b][1,4]thiazin-8-yl)benzonitrile]: 7.96 and 6.19.
With `COc1ccc(C(=O)N2CCSc3c(-c4ccc(C#N)cc4)cncc32)cc1` [S97, 4-(4-(4-Methoxybenzoyl)-3,4-dihydro-2H-pyrido[4,3-b][1,4]thiazin-8-yl)benzonitrile], the values for the pIC50 on human CYP11B2 and at human CYP11B1 were 7.68 and 5.38, respectively.
For the compound `COc1ccc(C(=O)N2CCSc3c(-c4cc5cc(C#N)ccc5o4)cncc32)cc1` [S98, 2-(4-(4-Methoxybenzoyl)-3,4-dihydro-2H-pyrido[4,3-b][1,4]thiazin-8-yl)benzofuran-5-carbonitrile], the pIC50 against human CYP11B2 is 7.96; on human CYP11B1 it was 5.93.
For `N#Cc1ccc(-c2cncc3c2SCC(=O)N3)cc1` [S99, 4-(3-Oxo-3,4-dihydro-2H-pyrido[4,3-b][1,4]thiazin-8-yl)benzonitrile] the same measures were 8.16 and 6.15.
In the case of `N#Cc1ccc(-c2cncc3c2SCC(=O)N3C(=O)c2ccc(Cl)cc2)cc1` [S100, 4-(4-(4-chlorobenzoyl)-3-oxo-3,4-dihydro-2H-pyrido[4,3-b][1,4]thiazin-8-yl)benzonitrile], the pIC50 at human CYP11B2 was 7.97; against human CYP11B1, 6.02.
With `N#CC1CN(S(=O)(=O)N2CCSc3c(-c4cc5cc(Cl)ccc5o4)cncc32)C1` [S101, 1-((8-(5-Chlorobenzofuran-2-yl)-2,3-dihydro-4H-pyrido[4,3-b][1,4]thiazin-4-yl)sulfonyl) azetidine-3-carbonitrile], the pIC50 on human CYP11B2 was 7.60; against human CYP11B1, 5.57.
For `O=S(=O)(N1CCn2cnnc2C1)N1CCSc2c(-c3cc4cc(Cl)ccc4o3)cncc21` [S102, 8-(5-Chlorobenzofuran-2-yl)-4-((5,6-dihydro-[1,2,4]triazolo[4,3-a]pyrazin-7 (8H)-yl)sulfonyl)-3,4-dihydro-2H-pyrido[4,3-b][1,4]thiazine] the same measures were 7.44 and 5.43.
The matching figures for `O=S(=O)(C1CN(C2COC2)C1)N1CCSc2c(-c3cc4cc(Cl)ccc4o3)cncc21` [S103, 8-(5-Chlorobenzofuran-2-yl)-4-((1-(oxetan-3-yl)azetidin-3-yl)sulfonyl)-3,4-dihydro-2H-pyrido[4,3-b][1,4]thiazine]: 8.30 and 6.02.
